Data published in patent US4895835A, “Muramyl peptide derivatives and use thereof” (priority 1987, dated 1990).

How the values were obtained:
BCG killed vaccine = assay: Enhancing action on BCG vaccine (adjuvant activity), 24 hours foot-pad test; format: in vivo; conditions: ICR mouse; s.c. 0.2 ml mixture of BCG killed vaccine (100 μg/ml) and compound in Freund's incomplete adjuvant (1000 μg/ml); tuberculin 10 μg after 14 days; measured after 24 hours
Experimental: (1) Enhancing action on BCG vaccine (adjuvant activity)
0.2 ml of an equivalent weight mixture of a solution of BCG killed vaccine in physiological saline (100 μg/ml) and a solution of a compound of the invention in Freund's incomplete adjuvant (1000 μg/ml) was subcutaneously injected to the back of ICR mouse (one group consisting of 7 mice). After 14 days, 10 μg of tuberculin was intradermally injected into the hind foot-pad. Swelling of the foot-pad was measured after 24 hours (24 hours foot-pad test).
The control is the above mentioned mixture excluded a compound of the invention.

[1] = system: B type hepatitis vaccine (HBs); assay: Enhancing effect on hepatitis vaccine (adjuvant activity), IgG antibody by ELISA; format: in vivo; conditions: CDF1 mouse; for Anti HBs-ELISA unit, Primary response serum: i.p. 0.2 ml compound (100 μg/ml) mixed with HBs vaccine, serum at 3 weeks; for Anti HBs-ELISA unit, Secondary response serum: second i.p. injection of 0.2 ml test solution, serum at 2 weeks
Experimental: (2) Enhancing effect on hepatitis vaccine (adjuvant activity)
A compound of the invention was dissolved or suspended in physiological saline (100 μg/ml), and mixed with a solution of B type hepatitis vaccine (HBs) in physiological saline (100 μg/m) at an equivalent weight ratio to obtain the test solution. A solution excluded the compound of the invention from the test solution was used as control.
The test solution (0.2 ml) was intraperitoneally injected into CDF1 mouse (one group consisting of 10 mice). At 3 weeks after the administration, a blood was taken from the intravenous vein in eyeground of each the mice and centrifuged to obtain serum (primary response serum). Further, 0.2 ml of the test solution was again intraperitoneally injected into each mice, and at 2 weeks stage, serum was separated in the similar way (secondary response serum).
Value for IgG antibody against B type hepatitis virus of the resulting serum was measured by ELISA method.

[2] = system: influenza HA vaccine (A/Bangkok/10/83 strain, H1N1); assay: Enhancing effect on influenza HA vaccine (adjuvant activity), ELISA; format: in vivo; conditions: CDF1 mouse, compound (100 μg/ml) mixed with influenza HA vaccine (100 CCA/ml)
Experimental: (3) Enhancing effect on influenza HA vaccine (adjuvant activity)
A compound of the invention was dissolved or suspended in physiological saline (100 μg/ml). Separately, influenza HA vaccine (A/Bangkok/10/83 strain, H1N1) was dissolved in physiological saline (100 CCA/ml). These two solutions were mixed in an equivalent weight to make the test solution. Control is a solution excluded the compound of the invention from the test solution.
The test solution was administered into CDF1 mouse in a similar way to that of the test of enhancing action for hepatitis vaccine as mentioned above, to obtain primary and secondary response sera.

[3] = system: leukemia cells of L-1210 mouse; assay: Activation for macrophages: cytostatic rate of intraperitoneal macrophages on leukemia cells; format: in vivo; conditions: CDF1 mouse i.p. 500 μg/ml, 0.2 ml; macrophages collected after 4 days; macrophages:L-1210 cells 20:1; 72 hours
Experimental: (4) Activation for macrophages
A test solution of a compound of the invention in physicological saline (500 μg/ml, 0.2 ml) was intraperioneally injected into CDF1 mouse (one group consisting of mice). Intraperioneal macrophages which were collected after 4 days and leukemia cells of L-1210 mouse were mixed at the cell ratio of 20 and 1. Each 200 μl of the mixture was put on a microplate having 96 holes. After 72 hours, numbers of cells in each holes were counted, and cytostatic rate of the mixture was measured.

[4] = Stimulation effect on antibody producing cells (plaque numbers, Cunningham technique); format: in vivo, ICR mouse; conditions: for Plaque No.: ICR mouse, SRBC i.v. and compound 500 μg/ml, 0.2 ml i.v., splenic cells after 4 days; for Stimulation index: plaque number relative to control (saline) = 1
Experimental: (5) Stimulation effect on anti-body precluding cells
A solution of sheep […] (SRBC) in phosphate buffered physiological saline (5×10^7 cells/ml), 0.2 ml was injected into tail intravenous vein of ICR mouse (7 mice per group). At the same time, a solution of a compound of the invention in physiological saline (500 μg/ml), 0.2 ml was similarly injected. After 4 days, lien was picked up from the treated mouse to obtain splenic cells. Plaque numbers were measured by Cunningham technique.

E. coli (JC-2) = assay: Phylactic effect, E. coli infection; format: in vivo; conditions: ICR mouse; compound 500 μg/ml, 0.2 ml i.p. one day before infection i.p. 1×10^7 /mouse; after 7 days of infection
Experimental: (§1) A solution of a compound of the invention in physiological saline (500 μg/ml), 0.2 ml was intraperitoneally injected into ICR mouse (20 mice per group). After a day, E. coli (JC-2) and Psud. aeruginosa (NCTC 10490) were incubated through intraperitoneal route so as to be at concentration of 1×10^7 /mouse. Survival rate after 7 days of infection was measured.

[5] = system: Psud. aeruginosa (NCTC 10490); assay: Phylactic effect, Psud. aeruginosa infection; format: in vivo; conditions: ICR mouse; compound 500 μg/ml, 0.2 ml i.p. one day before infection i.p. 1×10^7 /mouse; after 7 days of infection
Experimental: as §1

Meth A fibrosarcomas = assay: Antitumour effect, Meth A fibrosarcoma; format: in vivo; conditions: BALB/C mouse; s.c. 0.2 ml mixture of Meth A cells (1×10^6 cells/ml) and compound (1,000 μg/ml); after 35 days
Experimental: Meth A fibrosarcomas were suspended in phosphate buffered physiological saline (1×10^6 cells/ml). Separately, a solution of a compound of the invention in physiological saline was prepared (1,000 μg/ml). An equivalent weight mixture of these two solution (0.2 ml) was subcutaneously injected into BALB/C mouse (20 mice per group). Survival rate after 35 days was measured.

| SMILES | Swelling of Foot-pad (BCG killed vaccine) [× 0.01 mm] | Anti HBs-ELISA unit, Primary response serum [1] | Anti HBs-ELISA unit, Secondary response serum [1] | Anti-influenza HA virus ELISA unit, Primary response serum [2] | Anti-influenza HA virus ELISA unit, Secondary response serum [2] | Cytostatic rate [3] [%] | Plaque No. [4] | Stimulation index [4] | Survival rate, E. coli (E. coli (JC-2)) [%] | Survival rate, Psud. aeruginosa [5] [%] | Survival rate (Meth A fibrosarcomas) [%] |
| --- | --- | --- | --- | --- | --- | --- | --- | --- | --- | --- | --- |
| CCCCCCCCCCCCCC(=O)O[C@H](CCCCCCCCCCC)CC(=O)OC[C@H]1OC[C@H](NC(C)=O)[C@@H](O[C@H](C)C(=O)N[C@@H](C)C(=O)N[C@H](CCC(=O)OC)C(N)=O)[C@@H]1O [Example 5, N-[[2-O-{2-Acetamido-1,5-anhydro-2,3-dideoxy-6-O-[(3R)-3-tetradodecanoyloxytetradecanoyl]-D-glucitol-3-yl}-D-lactoyl]]-L-alanyl-D-isoglutamine methyl ester] | 69.3 ± 18.8 | 3,600 ELISA unit | 120,000 ELISA unit | 1,800 ELISA unit | 28,000 ELISA unit | 58.6 ± 2.9 | 5.83 ± 3.2 × 10^3 | 1.2 | 70 | 55 | 35 |
| CCCCCCCCCCCCCCCC(=O)O[C@H](CCCCCCCCCCC)CC(=O)OC[C@H]1OC[C@H](NC(C)=O)[C@@H](O[C@H](C)C(=O)N[C@@H](C)C(=O)N[C@H](CCC(=O)OC)C(N)=O)[C@@H]1O [Example 6] | 86.4 ± 22.1 | 6,200 ELISA unit | 220,000 ELISA unit | 2,500 ELISA unit | 30,000 ELISA unit | 42.6 ± 3.2 | 6.81 ± 4.8 × 10^3 | 1.4 | 60 | 50 | 30 |
| CCCCCCCCCCCC(=O)O[C@H](CCCCCCCCCCC)CC(=O)OC[C@H]1O[C@@H](S)[C@H](NC(C)=O)[C@@H](O[C@H](C)C(=O)N[C@@H](C)C(=O)N[C@H](CCC(=O)OC)C(N)=O)[C@@H]1O [Example 7, N-[[2-O-{2-Acetamido-2,3-dideoxy-6-O-[(3R)-3-dodecanoyloxytetradecanoyl]-1-thio-β-D-glucopyranos-3-yl}-D-lactoyl]]-L-alanyl-D-isoglutamine methyl ester] | 50.6 ± 13.6 | 2,500 ELISA unit | 110,000 ELISA unit | 2,000 ELISA unit | 26,000 ELISA unit | 22.8 ± 2.6 | 10.88 ± 9.8 × 10^3 | 2.3 | 30 | 20 | 10 |
| CCCCCCCCCCCCCC(=O)O[C@H](CCCCCCCCCCC)CC(=O)OC[C@H]1O[C@@H](S)[C@H](NC(C)=O)[C@@H](O[C@H](C)C(=O)N[C@@H](C)C(=O)N[C@H](CCC(=O)OC)C(N)=O)[C@@H]1O [Example 8, N-[[2-O-{2-Acetamido-2,3-dideoxy-6-O-[(3R)-3-tetradecanoyloxytetradecanoyl]-1-thio-β-D-glucopyranos-3-yl}-D-lactoyl]]-L-alanyl-D-isoglutamine methyl ester] | 51.8 ± 11.0 | 2,200 ELISA unit | 105,000 ELISA unit | 2,100 ELISA unit | 22,000 ELISA unit | 31.6 ± 1.6 | 8.63 ± 7.9 × 10^3 | 1.8 | 35 | 20 | 5 |
| CCCCCCCCCCCCCCCC(=O)O[C@H](CCCCCCCCCCC)CC(=O)OC[C@H]1O[C@@H](S)[C@H](NC(C)=O)[C@@H](O[C@H](C)C(=O)N[C@@H](C)C(=O)N[C@H](CCC(=O)OC)C(N)=O)[C@@H]1O [Example 9, N-[[2-O-{2-Acetamido-2,3-dideoxy-6-O-[(3R)-3-hexadodecanoyloxytetradecanoyl]-1-thio-β-D-glucopyranos-3-yl}-D-lactoyl]]-L-alanyl-D-isoglutamine methyl ester] | 49.1 ± 12.0 | 3,400 ELISA unit | 150,000 ELISA unit | 1,900 ELISA unit | 25,000 ELISA unit | 38.2 ± 2.2 | 11.00 ± 10.1 × 10^3 | 2.3 | 40 | 15 | 5 |
